What all share (format): cell-based
The target in experiment [1] is T1, mouse PPAR α (Mus musculus, UniProt P23204).
T1 construct: expressed in transfected cells; host or cells: HEK293T
T1 sequence (P23204 239-466 limits assumed): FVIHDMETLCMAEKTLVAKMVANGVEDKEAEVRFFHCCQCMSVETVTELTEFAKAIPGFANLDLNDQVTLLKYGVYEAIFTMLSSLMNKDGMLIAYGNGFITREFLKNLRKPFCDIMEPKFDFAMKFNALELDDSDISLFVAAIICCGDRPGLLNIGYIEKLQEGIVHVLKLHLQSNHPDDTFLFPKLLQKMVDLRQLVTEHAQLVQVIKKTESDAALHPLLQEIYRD
Briefly: PPAR alpha transactivation (GAL4 chimeric receptor luciferase reporter) assay. Conditions: pFR-Luc reporter, HEK293T cells, 20 hours incubation, read-out: Gene Activation Assay: EC50 (<10 μM) PPAR alpha. From the text: (§1) Measurement of PPARγ, δ, and α Transactivation Activity.
(§2) Chimeric receptors were constructed in which the yeast transcription factor GAL4 DNA binding domain was fused to the ligand binding domain of either mouse PPARγ, mouse PPARδ or mouse PPAR α in order to assess the ability of the compounds of the present invention to activate gene expression in a PPAR-dependent manner. The chimeric receptor expression plasmids (GAL4-mPPARγ, GAL4-mPPAR δ and GAL4-PPAR α) and the reporter plasmid containing 5×GAL4 binding site (pFR-Luc, obtained from Stratagene) were transfected into HEK293T cells using the Lipofectamine 2000 reagent (Invitrogen), according to the manufacturers instructions. Six hours after transfection, the culture medium was renewed and the cells were incubated for 20 hours in presence of either 1) DMSO (vehicle), 2) a compound of the invention or 3) a reference compound for comparison. Rosiglitazone (obtained from WDF Pharma) was used as a reference compound for the PPARγassay; GW501516 (prepared as described in Sznaidman et al. Bioorg. Med. Chem. Lett. (2003) 13:1517-1521) was used as a reference compound for the PPAR δ assay and GW7647 (obtained from Sigma) was used as a reference compound for the PPAR α assay. Luciferase activity was measured as a reporter of gene expression. Luciferase activity on the cell lysates using the Steady-Glo reagent was measured according to the manufacturers instructions.

The target of experiment [2] is T2, mouse PPARδ (Mus musculus, UniProt P35396).
T2 construct: expressed in transfected cells; host or cells: HEK293T
T2 sequence (P35396 210-438 limits assumed): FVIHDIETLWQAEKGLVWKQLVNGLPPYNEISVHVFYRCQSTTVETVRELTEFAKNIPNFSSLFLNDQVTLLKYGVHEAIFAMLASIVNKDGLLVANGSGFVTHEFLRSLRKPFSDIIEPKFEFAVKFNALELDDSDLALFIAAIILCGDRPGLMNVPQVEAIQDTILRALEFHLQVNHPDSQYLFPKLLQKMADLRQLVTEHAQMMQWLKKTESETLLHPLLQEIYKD
Briefly: PPAR delta transactivation (GAL4 chimeric receptor luciferase reporter) assay. Conditions: GAL4-mPPAR δ chimeric receptor, pFR-Luc reporter, HEK293T cells, 20 hours incubation; read-out: Gene Activation Assay: EC50 (<10 μM) PPAR delta.
Description: as §1, §2
A general note: Reporter assays use an easily measured gene product as a stand-in for the process of interest.

Experiment [3] has as its target T3, mouse PPARγ (Mus musculus, UniProt P37238).
T3 construct: expressed in transfected cells; host or cells: HEK293T
T3 sequence (P37238 238-503 limits assumed): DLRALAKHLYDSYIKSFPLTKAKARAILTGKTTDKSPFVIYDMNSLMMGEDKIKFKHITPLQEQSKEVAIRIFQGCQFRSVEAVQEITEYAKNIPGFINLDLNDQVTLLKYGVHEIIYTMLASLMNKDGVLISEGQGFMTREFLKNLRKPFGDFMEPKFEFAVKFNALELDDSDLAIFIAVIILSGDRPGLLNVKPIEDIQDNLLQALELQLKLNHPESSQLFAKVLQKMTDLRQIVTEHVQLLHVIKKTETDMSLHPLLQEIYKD
Kind of experiment: PPAR gamma transactivation (GAL4 chimeric receptor luciferase reporter) assay. Conditions: GAL4-mPPARγ chimeric receptor, pFR-Luc reporter, HEK293T cells, 20 hours incubation; read-out: Gene Activation Assay: EC50 (<10 μM) PPAR gamma.
Description: as §1, §2

Take `Cc1nn(-c2ccc(C(F)(F)F)cc2)nc1COc1ccc2c(CC(=O)O)coc2c1` [Compound 160, {6-[5-Methyl-2-(4-trifluoromethyl-phenyl)-2H-[1,2,3]triazol-4-ylmethoxy]-benzofuran-3-yl}-acetic acid]: the values for the EC50 in experiment [1], in experiment [2] and in experiment [3] were over 10 µM, under 10 µM and over 10 µM, respectively.

In the case of `Cc1nn(-c2ccc(C(F)(F)F)cc2)nc1COc1ccc2ccn(CC(=O)O)c2c1` [Compound 130, {6-[5-Methyl-2-(4-trifluoromethyl-phenyl)-2H-[1,2,3]triazol-4-ylmethoxy]-indol-1-yl}-acetic acid], the EC50 in experiment [1], in experiment [2] and in experiment [3] was under 10 µM each time.

In the case of `Cc1nn(-c2ccc(C(F)(F)F)cc2)nc1COc1ccc2c(ccn2CC(=O)O)c1` [Compound 20, {5-[5-Methyl-2-(4-trifluoromethyl-phenyl)-2H-[1,2,3]triazol-4-ylmethoxy]-indol-1-yl}-acetic acid], the values for the EC50 in experiment [1], in experiment [2] and in experiment [3] were over 10 µM, under 10 µM and over 30 µM, respectively.

With `Cc1nn(-c2ccc(C(F)(F)F)cc2)nc1COc1ccc2c(c1)OCC2CC(=O)O` (stereo not drawn) [Compound 700, {6-[5-Methyl-2-(4-trifluoromethyl-phenyl)-2H-[1,2,3]triazol-4-ylmethoxy]-2,3-dihydro-benzofuran-3-yl}-acetic acid], the EC50 was over 10 µM in experiment [1], under 10 µM in experiment [2] and over 30 µM in experiment [3].
